# pIC50: −log10 of the molar value.
# Target: T1, human NaV1.8 (Homo sapiens, UniProt Q9Y5Y9)
# T1 construct: expressed in transfected cells
# Test: Nav1.8 Qube® Assay (automated 384-well patch-clamp, inhibition of sodium current)
# Assay type: cell-based
# Conditions: human NaV1.8 channels stably expressed in HEK 293 cells, room temperature
# Procedure: Compounds were tested on human NaV1.8 and NaV1.5 channels stably expressed in human embryo kidney (HEK) 293 cells. Sodium current measurements on Qube® were conducted as follows: automated 384-well patch-clamp assays on the Qube® platform (Sophion Biosciences) were used to measure the inhibition of sodium flow through human NaV1.8 and NaV1.5 channels. Whole-cell voltage-clamp recordings were performed in QChips® (Sophion Biosciences) at room temperature. NaV1.8 current measurements on Qube® were obtained as follows: NaV1.8 currents were elicited with a 10 second 1 Hertz (Hz) pulse train from a holding potential of −90 millivolts (mV), delivered to the cells once per minute in the control condition (DMSO only) and after compound addition. The 1 hertz pulse train stimulation consisted of ten test pulses to 10 millivolt (mV) for 20 milliseconds (ms), each of which was followed by a 980 millisecond repolarization to −67 millivolts. At the end of the 10 second pulse train stimulation, a 5 second hyperpolarization step to −100 millivolt (mV) was used to recover NaV1.8 from fast inactivation. The peak currents elicited by the 1st and 10th test pulses were used to determine IC50 values for resting inhibition and inactivated state inhibition. NaV1.5 current measurements on Qube® were obtained as follows: NaV1.5 currents were elicited with a 20 second 3 Hertz pulse train in the control condition (DMSO only) and after compound addition. The pulse train consisted of sixty 20 millisecond test pulses to 0 millivolt from a holding potential of −80 millivolt (mV). The average peak currents elicited by the last 3 test pulses were used to determine IC50 values for NaV1.5 inhibition.
# The following buffers were used for the Qube® recordings: External buffer for NaV1.8 Qube® recording: 150 NaCl, 2 CaCl2, 5 KCl, 1 Mg Cl2, 10 HEPES, 12 Dextrose; External buffer for Qube® NaV1.5 recording: 120 N-Methyl-D-Glucamine, 40 NaCl, 1 KCl, 2.7 CaCl2, 5 HEPES, 0.5 MgCl2; and Internal buffer for Qube® recording: 120 CsF, 30 CsCl, 10 EGTA, 5 HEPES, 5 NaF, 2 MgCl2.
# For all Qube® experiments offline analysis was used to determine percent inhibition as a function of drug concentration. IC50 values were determined by fitting to the Hill equation.
# T1 sequence (Q9Y5Y9 whole entry): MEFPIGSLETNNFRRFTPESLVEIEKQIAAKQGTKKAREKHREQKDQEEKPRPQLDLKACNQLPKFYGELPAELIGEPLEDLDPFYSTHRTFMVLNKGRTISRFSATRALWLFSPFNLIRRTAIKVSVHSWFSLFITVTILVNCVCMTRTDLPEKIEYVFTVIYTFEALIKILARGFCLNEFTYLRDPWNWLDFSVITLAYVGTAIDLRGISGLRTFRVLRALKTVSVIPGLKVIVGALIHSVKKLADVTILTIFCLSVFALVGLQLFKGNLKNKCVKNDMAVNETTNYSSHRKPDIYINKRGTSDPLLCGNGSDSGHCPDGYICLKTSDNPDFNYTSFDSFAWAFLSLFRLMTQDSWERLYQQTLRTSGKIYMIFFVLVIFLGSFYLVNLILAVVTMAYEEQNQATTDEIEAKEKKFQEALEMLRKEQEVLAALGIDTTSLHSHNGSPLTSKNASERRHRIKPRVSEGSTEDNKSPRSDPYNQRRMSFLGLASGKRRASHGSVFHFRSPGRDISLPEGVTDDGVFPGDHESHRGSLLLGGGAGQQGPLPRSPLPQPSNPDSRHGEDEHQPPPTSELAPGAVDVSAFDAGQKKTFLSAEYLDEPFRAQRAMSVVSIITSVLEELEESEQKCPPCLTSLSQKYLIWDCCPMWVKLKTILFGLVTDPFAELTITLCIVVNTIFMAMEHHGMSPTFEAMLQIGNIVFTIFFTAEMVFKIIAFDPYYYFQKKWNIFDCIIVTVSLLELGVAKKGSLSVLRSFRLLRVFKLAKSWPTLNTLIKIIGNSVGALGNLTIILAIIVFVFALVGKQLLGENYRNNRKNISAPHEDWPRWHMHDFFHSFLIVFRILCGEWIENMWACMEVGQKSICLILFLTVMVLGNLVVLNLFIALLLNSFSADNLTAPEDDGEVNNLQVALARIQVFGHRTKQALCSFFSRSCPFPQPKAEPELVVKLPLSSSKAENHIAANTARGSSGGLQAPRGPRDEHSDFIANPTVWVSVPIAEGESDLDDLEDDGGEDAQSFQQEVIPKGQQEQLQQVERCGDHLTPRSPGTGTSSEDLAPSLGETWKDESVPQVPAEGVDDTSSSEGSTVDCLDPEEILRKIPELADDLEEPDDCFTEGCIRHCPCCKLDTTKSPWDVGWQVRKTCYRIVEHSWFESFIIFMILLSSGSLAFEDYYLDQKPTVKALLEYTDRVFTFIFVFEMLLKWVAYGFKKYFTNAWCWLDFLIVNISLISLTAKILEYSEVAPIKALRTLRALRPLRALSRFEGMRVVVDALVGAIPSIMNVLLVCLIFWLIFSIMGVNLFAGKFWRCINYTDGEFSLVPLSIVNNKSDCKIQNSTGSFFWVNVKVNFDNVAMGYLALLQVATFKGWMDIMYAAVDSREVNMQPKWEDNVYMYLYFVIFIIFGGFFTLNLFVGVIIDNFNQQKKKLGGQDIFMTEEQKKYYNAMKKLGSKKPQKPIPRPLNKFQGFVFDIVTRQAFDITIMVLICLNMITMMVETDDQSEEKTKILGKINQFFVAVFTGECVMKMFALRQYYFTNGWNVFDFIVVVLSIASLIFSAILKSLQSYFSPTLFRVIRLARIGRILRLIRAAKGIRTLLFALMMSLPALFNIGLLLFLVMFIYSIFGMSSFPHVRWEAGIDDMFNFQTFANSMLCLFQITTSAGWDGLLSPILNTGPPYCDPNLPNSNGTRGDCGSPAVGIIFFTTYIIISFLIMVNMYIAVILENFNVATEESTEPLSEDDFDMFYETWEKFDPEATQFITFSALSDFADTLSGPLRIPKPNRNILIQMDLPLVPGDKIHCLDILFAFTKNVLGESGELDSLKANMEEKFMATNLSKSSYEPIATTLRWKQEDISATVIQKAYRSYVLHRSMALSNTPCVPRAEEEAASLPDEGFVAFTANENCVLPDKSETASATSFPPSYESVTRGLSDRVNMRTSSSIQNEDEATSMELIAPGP
row,SMILES,pIC50
1,"C[C@@H]1C(=O)NCCN1C(=O)NC(c1ccc(F)c(Cl)c1)C1CCN(CC(F)(F)F)CC1 (single isomer, unassigned) [Example 15B]",6.26
2,"C[C@@H]1C(=O)NCCN1C(=O)NC(c1ccc(Cl)c(C(F)(F)F)n1)C1CC(C(F)(F)F)C1 (single isomer, unassigned) [Example 47A, (2R)—N—((R or S)-(5-chloro-6-(trifluoromethyl)pyridin-2-yl)(cis-3-(trifluoromethyl)-cyclobutyl)methyl)-2-methyl-3-oxopiperazine-1-carboxamide]",7.94
3,"C[C@@H]1C(=O)NCCN1C(=O)NC(c1cccc(Cl)c1F)[C@H]1C[C@H](C(F)(F)F)C1 (single isomer, unassigned) [Example 53B, (2R)-N-((S or R)-(3-chloro-2-fluorophenyl)-(trans-3-(trifluoro-methyl)cyclobutyl)meth-yl)-2-methyl-3-oxo-piperazine-1-carboxamide]",8.04
4,"C[C@@H]1C(=O)NCCN1C(=O)NC(c1ccc(F)c(Cl)c1)C1CC(C(F)(F)F)C1 (single isomer, unassigned) [Example 43D, (2R)-N-((S or R)-(3-chloro-4-fluorophenyl)-(cis-3-(trifluoromethyl)-cyclobutyl)methyl)-2-methyl-3-oxopiperazine-1-carboxamide]",7.66
5,"C[C@@H]1C(=O)NCCN1C(=O)NC(c1ccc(F)c(Cl)c1F)C1CC(OC(F)F)C1 (single isomer, unassigned) [Example 39B, (2R)-N-((R or S)-(3-chloro-2,4-difluoro-phenyl)(cis-3-(difluoro-methoxy)cyclobutyl)-methyl)-2-methyl-3-oxopiperazine-1-carboxamide]",6.04
6,"C[C@@H]1C(=O)NCCN1C(=O)NC(c1csc(C(F)(F)F)n1)[C@H]1CC[C@H](C(F)(F)F)CC1 (single isomer, unassigned) [Example 55A]",6.31
7,"C[C@@H]1C(=O)NCCN1C(=O)NC(c1ccc(F)c(Cl)c1F)C1CC(OC(F)F)C1 (single isomer, unassigned) [Example 39D, (2R)-N-((S or R)-(3-chloro-2,4-difluoro-phenyl)(trans-3-(difluoro-methoxy)cyclobutyL)-methyl)-2-methyl-3-oxopiperazine-1-carboxamide]",8.09
8,"C[C@@H]1C(=O)NCCN1C(=O)NC(c1ccc(OC(F)(F)F)cc1F)[C@H]1C[C@H](C(F)(F)F)C1 (single isomer, unassigned) [Example 50A, ((2R)-N-((R or S)-(2-fluoro-4-(trifluoro-methoxy)phenyl)(trans-3-(trifluoromethyl)-cyclobutyl)methyl)-2-methyl-3-oxopiperazine-1-carboxamide]",6.41
9,"CC(N1CCC(C(NC(=O)N2CCNC(=O)[C@H]2C)c2ccc(F)c(Cl)c2)CC1)C(F)(F)F (single isomer, unassigned) [Example 18A]",8.39
10,"C[C@@H]1C(=O)NCCN1C(=O)NC(c1ccc(F)c(Cl)c1F)C1CCC(F)(F)CC1 (single isomer, unassigned) [Example 13A, (2R)-N-((R or S)-(3-chloro-2,4-difluoro-phenyl)(4,4-difluoro-cyclohexyl)methyl)-2-methyl-3-oxo-piperazine-1-carboxamide]",7.87
11,"C[C@@H]1C(=O)NCCN1C(=O)NC(c1ccc(F)c(Cl)c1)[C@@H]1C[C@@H]2[C@H](C1)C2(F)F (single isomer, unassigned) [Example 7A, (2R)-N-((R or S)-(3-chloro-4-fluoro-phenyl)((1R,3s,5S)-6,6-difluoro-bicyclo[3.1.0]hexan-3-yl)methyl)-2-methyl-3-oxo-piperazine-1-carboxamide]",6.95
12,"C[C@@H]1C(=O)NCCN1C(=O)NC(c1ccc(F)c(Cl)c1F)C1CCC(F)(F)CC1 (single isomer, unassigned) [Example 13B, (2R)-N-((S or R)-(3-chloro-2,4-difluoro-phenyl)(4,4-difluoro-cyclohexyl)methyl)-2-methyl-3-oxo-piperazine-1-carboxamide]",6.14
13,"C[C@@H]1C(=O)NCCN1C(=O)NC(c1ccc(F)c(Cl)c1F)C1CC(C2CC2)C1 (single isomer, unassigned) [Example 21C, (2R)-N-((S or R)-(3-chloro-2,4-difluoro-phenyl)(trans or cis-3-cyclopropyl-cyclobutyl)-methyl)-2-methyl-3-oxopiperazine-1-carboxamide]",7.22
14,"C[C@@H]1C(=O)NCCN1C(=O)NC(c1ccc(F)c(Cl)c1F)C1CC12CC2 (single isomer, unassigned) [Example 41C, (2R)-N-((R or S)-(3-chloro-2,4-difluoro-phenyl)(S or R)-spiro[2.2]pentan-1-yl)methyl)-2-methyl-3-oxopiperazine-1-carboxamide]",6.84
15,"Cc1cc(C(NC(=O)N2CCNC(=O)[C@H]2C)C2CCC(C(F)(F)F)CC2)ccc1F (single isomer, unassigned) [Example 36B]",7.13
16,"C[C@@H]1C(=O)NCCN1C(=O)NC(c1ccc(F)c(Cl)c1F)C1COc2ccccc2C1 (single isomer, unassigned) [Example 62C, (R)—N—((S or R)-(3-chloro-2,4-difluorophenyl)((R or S)-chroman-3-yl)methyl)-2-methyl-3-oxopiperazine-1-carboxamide]",6.31
17,"O=C1CN(C(=O)N[C@H](c2ccc(Cl)cc2)C2CCC(C(F)(F)F)CC2)CCN1 (single isomer, unassigned) [Example 4B, N-((S or R)-(4-chlorophenyl)(trans-4-(trifluoromethyl)-cyclohexyl)methyl)-3-oxopiperazine-1-carboxamide]",6.54
18,"C[C@@H]1C(=O)NCCN1C(=O)NC(c1cccc(Cl)c1F)[C@H]1C[C@H](C(F)(F)F)C1 (single isomer, unassigned) [Example 53A, (2R)-N-((R or S)-(3-chloro-2-fluorophenyl)-(trans-3-(trifluoro-methyl)cyclobutyl)meth-yl)-2-methyl-3-oxo-piperazine-1-carboxamide]",6.27
19,"C[C@@H]1C(=O)NCCN1C(=O)NC(c1ccc(Cl)c(C(F)(F)F)n1)C1CCC(F)(F)CC1 (single isomer, unassigned) [Example 46A, (2R)-N-((R or S)-(5-chloro-6-(trifluoro-methyl)pyridin-2-yl)(4,4-difluoro-cyclohexyl)methyl)-2-methyl-3-oxo-piperazine-1-carboxamide]",6.47
20,"C[C@@H]1C(=O)NCCN1C(=O)NC(C)(c1ccc(F)c(Cl)c1)C1CC(C(F)(F)F)C1 (single isomer, unassigned) [Example 48C, (2R)—N—((S or R)-1-(3-chloro-4-fluorophenyl)-1-(cis-3-(trifluoromethyl)cyclobutyl)ethyl)-2-methyl-3-oxopiperazine-1-carboxamide]",6.51
21,"C[C@@H]1C(=O)NCCN1C(=O)NC(c1ccc(Cl)cc1)C1CCN(CC(F)(F)F)CC1 (single isomer, unassigned) [Example 16B, (2R)-N-((S or R)-(4-chlorophenyl)(1-(2,2,2-trifluoroethyl)piperidin-4-yl)methyl)-2-methyl-3-oxopiperazine-1-carboxamide]",6.03
22,"C[C@@H]1C(=O)NCCN1C(=O)NC(c1ccc(F)c(Cl)c1F)[C@H]1CC[C@H](C(F)(F)F)CC1 (single isomer, unassigned) [Example 9B, (2R)-N-((S or R)-(3-chloro-2,4-difluoro-phenyl)(trans-4-(trifluoromethyl)cyclo-hexyl)methyl)-2-methyl-3-oxo-piperazine-1-carboxamide]",9.10
23,"C[C@@H]1C(=O)NCCN1C(=O)NC(c1ccc(F)c(Cl)c1F)C1CC(C)(C)C1 (single isomer, unassigned) [Example 31B, (2R)-N-((S or R)-(3-chloro-2,4-difluoro-phenyl)(3,3-dimethyl-cyclobutyl)methyl)-2-methyl-3-oxopiperazine-1-carboxamide]",7.15
24,"C[C@@H]1C(=O)NCCN1C(=O)NC(c1ccc(F)c(Cl)c1F)C1CC(C(F)(F)F)C1 (single isomer, unassigned) [Example 20D]",6.94
25,"C[C@@H]1C(=O)NCCN1C(=O)NC(c1ccc(OC(F)(F)F)c(Cl)c1)C1CC(C(F)(F)F)C1 (single isomer, unassigned) [Example 54A, (2R)-N-((R or S)-(3-chloro-4-(trifluoro-methoxy)phenyl)(3-(trifluoromethyl)cyclo-butyl)methyl)-2-methyl-3-oxopiperazine-1-carboxamide]",8.77
